Data set [1] deals with T1, Dual specificity tyrosine-phosphorylation-regulated kinase 1A (Rattus norvegicus, UniProt Q63470). In words: Inhibition of rat recombinant 6xHis-tagged DYRK1A catalytic domain (1 to 502) expressed in Escherichia coli BL21 (DE3) using N-terminal fluorescein coupled KISGRLSPIMTEQ as substrate after 30 mins by HPLC analysis in presence of 50 uM ATP.
The target of data set [2] is T2, Dual specificity tyrosine-phosphorylation-regulated kinase 1A (Homo sapiens, UniProt Q13627). In words: Inhibition of DYRK1A (unknown origin) by HPLC analysis.
Data set [3] deals with T1, Dual specificity tyrosine-phosphorylation-regulated kinase 1A. In words: Inhibition of rat recombinant 6xHis-tagged DYRK1A catalytic domain (1 to 502) expressed in Escherichia coli BL21 (DE3) using N-terminal fluorescein coupled KISGRLSPIMTEQ as substrate after 30 mins by HPLC analysis in presence of 1 mM ATP.
Data set [4] can be described thus: Cytotoxicity against human KB cells assessed as growth inhibition at 10^-6 M after 72 hrs by resazurin dye-based fluorimetric analysis relative to control. The data set is classed as cell-based. As to conditions: read-out: GI. In general terms: Alamar Blue is a resazurin reagent that responds to reducing activity.
Data set [5] is described as follows: Cytotoxicity against human KB cells assessed as growth inhibition at 10^-5 M after 72 hrs by resazurin dye-based fluorimetric analysis relative to control. The data set is classed as cell-based. To be noted: read-out: GI.
In data set [6] the target is High affinity nerve growth factor receptor (Homo sapiens) (UniProt P04629). As to the kind of experiment: Inhibition of human TRKA at 5 x 10^-8 M.
In data set [7] the target is Serine/threonine-protein kinase pim-1 (Homo sapiens) (UniProt P11309). In words: Inhibition of human Pim1 kinase at 5 x 10^-8 M.
In data set [8] the target is Glycogen synthase kinase-3 beta (Homo sapiens) (UniProt P49841). In words: Inhibition of human GSK-3beta at 5 x 10^-8 M.
Data set [9] has as its target Mitogen-activated protein kinase 1 (Homo sapiens) (UniProt P28482). In words: Inhibition of human ERK2 at 5 x 10^-8 M.
Data set [10] concerns the target T1, Dual specificity tyrosine-phosphorylation-regulated kinase 1A. As to the kind of experiment: Competitive inhibition of rat recombinant 6xHis-tagged DYRK1A catalytic domain (1 to 502) expressed in Escherichia coli BL21 (DE3) using ATP as substrate by Michaelis-Menten plot analysis.
Data set [11] deals with RAC-alpha serine/threonine-protein kinase (Homo sapiens) (UniProt P31749). In words: Inhibition of human AKT1 at 5 x 10^-8 M.
Data set [12] addresses T3, Dual specificity tyrosine-phosphorylation-regulated kinase 3 (Homo sapiens) (UniProt O43781).
T3 sequence (whole entry): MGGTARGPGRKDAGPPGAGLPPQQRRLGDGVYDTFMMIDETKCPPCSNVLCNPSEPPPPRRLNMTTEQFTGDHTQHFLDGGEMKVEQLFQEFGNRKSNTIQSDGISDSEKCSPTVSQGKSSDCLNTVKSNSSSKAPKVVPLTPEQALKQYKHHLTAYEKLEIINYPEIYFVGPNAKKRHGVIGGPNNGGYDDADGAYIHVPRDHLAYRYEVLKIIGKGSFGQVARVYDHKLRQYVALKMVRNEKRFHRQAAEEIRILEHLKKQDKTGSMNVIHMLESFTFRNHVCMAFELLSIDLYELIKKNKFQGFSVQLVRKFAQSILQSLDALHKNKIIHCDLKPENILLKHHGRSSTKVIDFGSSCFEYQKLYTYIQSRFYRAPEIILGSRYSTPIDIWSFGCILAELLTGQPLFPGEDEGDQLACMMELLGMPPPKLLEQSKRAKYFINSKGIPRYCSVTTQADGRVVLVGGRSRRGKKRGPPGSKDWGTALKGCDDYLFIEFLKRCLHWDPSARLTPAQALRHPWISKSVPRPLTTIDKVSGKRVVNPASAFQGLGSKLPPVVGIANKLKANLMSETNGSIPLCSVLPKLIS
As to the kind of experiment: Inhibition of human DYRK3 at 5 x 10^-8 M relative to control.

In data set [13] the target is T4, Dual specificity tyrosine-phosphorylation-regulated kinase 2 (Homo sapiens) (UniProt Q92630).
T4 sequence (whole entry): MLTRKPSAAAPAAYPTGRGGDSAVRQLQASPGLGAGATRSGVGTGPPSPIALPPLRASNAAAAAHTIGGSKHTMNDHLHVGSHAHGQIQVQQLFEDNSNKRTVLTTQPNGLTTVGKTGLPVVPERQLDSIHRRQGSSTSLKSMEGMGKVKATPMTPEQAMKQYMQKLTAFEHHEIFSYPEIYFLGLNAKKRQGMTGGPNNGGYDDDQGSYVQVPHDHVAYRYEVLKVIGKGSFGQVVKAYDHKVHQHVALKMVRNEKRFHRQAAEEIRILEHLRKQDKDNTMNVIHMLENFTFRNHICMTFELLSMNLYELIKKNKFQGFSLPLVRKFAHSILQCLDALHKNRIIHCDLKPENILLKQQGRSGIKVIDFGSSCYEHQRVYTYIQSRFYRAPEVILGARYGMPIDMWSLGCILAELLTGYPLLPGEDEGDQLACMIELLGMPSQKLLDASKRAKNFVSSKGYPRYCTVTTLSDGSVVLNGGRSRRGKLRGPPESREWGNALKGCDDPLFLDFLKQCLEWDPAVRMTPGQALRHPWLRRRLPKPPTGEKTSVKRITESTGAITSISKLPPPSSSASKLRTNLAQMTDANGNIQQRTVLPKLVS
As to the kind of experiment: Inhibition of human DYRK2 at 5 x 10^-8 M relative to control.

For data set [14], the target named is CDK2/Cyclin A2 (Homo sapiens) (UniProt P24941+P20248). As to the kind of experiment: Inhibition of human CDK2/cyclin A at 5 x 10^-8 M relative to control. The data set is classed as protein-complex assay.
Data set [15] concerns the target Casein kinase I isoform alpha (Homo sapiens) (UniProt P48729). In words: Inhibition of human CK1alpha at 5 x 10^-8 M relative to control.
For data set [16], the target named is T2, Dual specificity tyrosine-phosphorylation-regulated kinase 1A. As to the kind of experiment: Inhibition of human GST-fused DYRK1A expressed in Escherichia coli using KISGRLSPIMTEQ as substrate.

The structures appear in SMILES notation. Calls of active or inactive are those of the source. The calls are words filed in the database; no cut-off is given here.

Chain of Mitogen-activated protein kinase 1 (Homo sapiens) (P28482 whole entry, the tested form may be a part): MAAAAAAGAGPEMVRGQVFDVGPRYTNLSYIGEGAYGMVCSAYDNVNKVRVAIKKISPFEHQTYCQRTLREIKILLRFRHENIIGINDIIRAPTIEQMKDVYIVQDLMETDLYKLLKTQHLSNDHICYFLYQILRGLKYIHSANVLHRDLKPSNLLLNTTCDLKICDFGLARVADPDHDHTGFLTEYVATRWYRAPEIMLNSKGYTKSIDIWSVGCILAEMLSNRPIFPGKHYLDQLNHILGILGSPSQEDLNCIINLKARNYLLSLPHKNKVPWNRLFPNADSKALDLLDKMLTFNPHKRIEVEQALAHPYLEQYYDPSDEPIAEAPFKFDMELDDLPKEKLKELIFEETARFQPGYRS
Chain of Glycogen synthase kinase-3 beta (Homo sapiens) (P49841 whole entry, looked up): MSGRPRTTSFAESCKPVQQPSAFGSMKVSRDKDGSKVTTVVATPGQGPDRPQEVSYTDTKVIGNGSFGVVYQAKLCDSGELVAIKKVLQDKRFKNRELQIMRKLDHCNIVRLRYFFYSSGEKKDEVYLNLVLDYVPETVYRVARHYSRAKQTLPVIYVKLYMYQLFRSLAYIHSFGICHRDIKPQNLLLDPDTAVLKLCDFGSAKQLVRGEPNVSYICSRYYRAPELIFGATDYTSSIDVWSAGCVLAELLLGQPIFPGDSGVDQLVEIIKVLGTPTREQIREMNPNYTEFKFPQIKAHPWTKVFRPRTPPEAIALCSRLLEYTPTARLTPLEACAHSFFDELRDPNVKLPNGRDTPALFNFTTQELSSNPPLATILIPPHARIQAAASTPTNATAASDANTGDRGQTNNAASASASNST
Chain of High affinity nerve growth factor receptor (Homo sapiens) (P04629 33-796 limits assumed): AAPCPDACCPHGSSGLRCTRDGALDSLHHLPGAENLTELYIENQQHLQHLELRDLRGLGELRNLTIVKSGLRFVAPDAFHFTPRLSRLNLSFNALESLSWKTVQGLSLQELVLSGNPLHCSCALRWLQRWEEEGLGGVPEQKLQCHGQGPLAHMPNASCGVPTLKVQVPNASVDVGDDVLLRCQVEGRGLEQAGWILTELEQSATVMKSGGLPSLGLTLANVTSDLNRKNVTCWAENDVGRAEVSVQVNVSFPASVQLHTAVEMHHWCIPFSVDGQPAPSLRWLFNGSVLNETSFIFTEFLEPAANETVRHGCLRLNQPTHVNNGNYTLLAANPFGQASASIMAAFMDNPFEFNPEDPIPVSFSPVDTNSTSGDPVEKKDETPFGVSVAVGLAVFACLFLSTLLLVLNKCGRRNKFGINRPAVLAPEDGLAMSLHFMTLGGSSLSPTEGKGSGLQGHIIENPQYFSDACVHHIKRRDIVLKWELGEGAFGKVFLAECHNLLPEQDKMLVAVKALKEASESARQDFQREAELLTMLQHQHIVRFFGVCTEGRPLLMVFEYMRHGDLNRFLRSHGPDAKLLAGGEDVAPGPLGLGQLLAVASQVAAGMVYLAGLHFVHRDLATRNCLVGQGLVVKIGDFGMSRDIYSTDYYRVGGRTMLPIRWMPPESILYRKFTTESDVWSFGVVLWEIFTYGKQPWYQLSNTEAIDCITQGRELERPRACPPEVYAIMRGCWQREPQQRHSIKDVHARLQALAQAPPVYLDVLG
Chain of Serine/threonine-protein kinase pim-1 (Homo sapiens) (P11309 whole entry, looked up): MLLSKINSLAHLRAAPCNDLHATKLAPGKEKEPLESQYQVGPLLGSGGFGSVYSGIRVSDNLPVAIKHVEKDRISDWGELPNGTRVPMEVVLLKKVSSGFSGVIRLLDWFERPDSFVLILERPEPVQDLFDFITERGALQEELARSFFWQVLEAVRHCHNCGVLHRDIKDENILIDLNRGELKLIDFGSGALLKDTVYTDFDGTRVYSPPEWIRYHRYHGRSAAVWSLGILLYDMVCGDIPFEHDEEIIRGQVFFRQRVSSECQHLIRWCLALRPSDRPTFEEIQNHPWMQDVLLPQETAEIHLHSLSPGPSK
Chain of Casein kinase I isoform alpha (Homo sapiens) (P48729 2-337 limits assumed): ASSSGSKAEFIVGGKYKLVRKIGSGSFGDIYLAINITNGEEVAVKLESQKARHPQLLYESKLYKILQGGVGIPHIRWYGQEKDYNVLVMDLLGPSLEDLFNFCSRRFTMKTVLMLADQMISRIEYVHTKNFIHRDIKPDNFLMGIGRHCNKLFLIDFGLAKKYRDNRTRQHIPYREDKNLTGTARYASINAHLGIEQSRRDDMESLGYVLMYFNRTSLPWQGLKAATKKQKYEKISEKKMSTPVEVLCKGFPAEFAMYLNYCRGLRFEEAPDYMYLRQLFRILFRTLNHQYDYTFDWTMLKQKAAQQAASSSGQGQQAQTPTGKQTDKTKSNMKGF
Chain of RAC-alpha serine/threonine-protein kinase (Homo sapiens) (P31749 whole entry): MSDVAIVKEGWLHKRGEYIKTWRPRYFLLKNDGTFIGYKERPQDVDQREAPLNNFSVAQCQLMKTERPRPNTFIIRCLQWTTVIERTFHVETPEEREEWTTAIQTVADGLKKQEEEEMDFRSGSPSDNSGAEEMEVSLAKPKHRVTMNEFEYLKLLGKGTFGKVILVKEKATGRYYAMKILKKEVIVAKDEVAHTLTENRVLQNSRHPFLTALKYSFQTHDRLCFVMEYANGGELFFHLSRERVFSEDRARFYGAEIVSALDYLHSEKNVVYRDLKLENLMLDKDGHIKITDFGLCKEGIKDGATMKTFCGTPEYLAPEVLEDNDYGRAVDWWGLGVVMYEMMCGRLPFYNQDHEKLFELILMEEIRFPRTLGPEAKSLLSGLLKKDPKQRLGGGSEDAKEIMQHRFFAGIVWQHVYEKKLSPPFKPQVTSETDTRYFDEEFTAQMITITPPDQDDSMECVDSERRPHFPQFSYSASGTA

A word on the IC50: it is the concentration that inhibits the measured activity by half. Regarding `COc1cccc(-c2cnc3[nH]cc(-c4ccccc4)c3c2)c1`, the IC50 in data set [1] amounted to 7490 nM.
On the same count and under the same terms, to `Oc1ccc(-c2cnc3[nH]cc(-c4ccccc4)c3c2)cc1` belongs 330 nM.
The compound `COc1ccc(-c2cc3c(-c4ccccc4)c[nH]c3cn2)cc1` registered an IC50 in data set [2] of 17000 nM.
As to `Oc1cccc(-c2cnc3[nH]cc(-c4cccc(O)c4)c3c2)c1`, the IC50 in data set [1] is 105 nM.
On to `COc1ccc(-c2c[nH]c3ncc(-c4ccc(OC)c(OC)c4)cc23)cc1`, for which the IC50 in [1] was 460 nM.
Still for that read-out and setting: in the case of `COc1ccc(-c2cnc3[nH]cc(-c4ccccc4)c3c2)c(OC)c1` it was 1170 nM.
One may read the Ki as the equilibrium dissociation constant of an inhibitor or competing ligand from its target. Take `Oc1ccc(-c2cnc3[nH]cc(-c4ccc(O)cc4)c3c2)cc1`: the IC50 was 43 nM in [3] and 23.1 nM in data set [1]. Also, in data set [4], the inhibition at 72 h, 1 µM was 51%. The inhibition at 72 h, 10 µM in data set [5] is 95%. For the same compound, the inhibition entry in data set [6], in data set [7], in data set [8] and in data set [9] was “inactive” throughout. Moreover, the Ki in data set [10] is 2.3 nM.
As to `Oc1ccc(-c2cnc3[nH]cc(-c4ccc(O)c(O)c4)c3c2)cc1O`, the values for the half-inhibitory concentration (IC50) in [3] and in data set [1] were 32 nM and 12.4 nM, respectively. In data set [11], the inhibition entry was “Active”. Also, the inhibition at 72 h, 1 µM in data set [4] worked out at 2%. The inhibition at 72 h, 10 µM in [5] was determined as 11%. Moreover, in data set [10], the Ki turned out to be 10.1 nM.
On to `COc1ccc(-c2cnc3[nH]cc(-c4ccccc4)c3c2)cc1`, for which, in [1], the IC50 turned out to be 960 nM.
Still for that read-out and setting: to `c1ccc(-c2cnc3[nH]cc(-c4ccccc4)c3c2)cc1` belongs 410 nM; to `COc1ccccc1-c1cnc2[nH]cc(-c3ccccc3)c2c1`, 960 nM.
Take `Oc1ccc(-c2c[nH]c3ncc(-c4ccc(O)cc4O)cc23)cc1`: the IC50 in data set [3] stood at 48 nM; in data set [1] it was 11.7 nM. Also, the inhibition at 72 h, 1 µM in data set [4] was determined as 21%. For the same compound, the inhibition at 72 h, 10 µM in data set [5] came to 83%. The inhibition in data set [12], in data set [13], in data set [14] and in data set [15] was < 50% in each case. Also, the inhibition result in data set [6], in [7], in data set [8] and in [9] was “inactive” each time. The Ki in data set [10] is 5.5 nM.
Take `Oc1ccc(-c2cnc3[nH]cc(-c4ccc(O)c(O)c4)c3c2)c(O)c1`: the IC50 in [1] is 14.3 nM. Also, the inhibition at 72 h, 1 µM in data set [4] was 0%. For the same compound, in data set [5], the inhibition at 72 h, 10 µM was determined as 9%. Moreover, in data set [10], the Ki was 7.6 nM.
On to `COc1ccc(-c2cnc3[nH]cc(-c4ccc(OC)cc4)c3c2)cc1`, for which, in data set [1], the IC50 came to 1740 nM.
Regarding `Oc1ccc(-c2c[nH]c3ncc(-c4ccc(O)c(O)c4)cc23)cc1`, the results for the IC50 in data set [3] and in data set [1] were 5.5 nM and 3 nM, respectively. The inhibition at 72 h, 1 µM in [4] was determined as 56%. The inhibition at 72 h, 10 µM in [5] was found to be 86%. For the same compound, the inhibition entry in data set [6], in [7], in data set [8] and in data set [9] was “inactive” throughout. In addition, the Ki in data set [10] was < 2 nM.
Consider `COc1ccc(-c2c[nH]c3ncc(-c4ccc(OC)cc4OC)cc23)cc1`, for which the IC50 in data set [1] was found to be 280 nM.
In [16], `O=C(O[C@@H]1Cc2c(O)cc(O)cc2O[C@@H]1c1cc(O)c(O)c(O)c1)c1cc(O)c(O)c(O)c1` [EPIGALOCATECHIN GALLATE] came in with an IC50 of 330 nM.
Turning to `Oc1ccc(-c2cnc3[nH]cc(-c4ccccc4)c3c2)cc1O`, the IC50 in [1] was 160 nM.
Take `Oc1ccc(-c2cc3c(-c4ccccc4)c[nH]c3cn2)cc1`: the IC50 in [2] was determined as 27400 nM.
Take `COc1ccc(OC)c(-c2cnc3[nH]cc(-c4ccc(OC)c(OC)c4)c3c2)c1`: the IC50 in [1] came out at 1670 nM.
Same read-out and setting: to `COc1ccc(-c2cnc3[nH]cc(-c4ccc(OC)c(OC)c4)c3c2)cc1OC` belongs 57800 nM.
The same measure, in the same setting: in the case of `COc1ccc(-c2cnc3[nH]cc(-c4ccccc4)c3c2)cc1OC` it was 3080 nM; in that of `COc1ccc(-c2cnc3[nH]cc(-c4ccc(OC)c(OC)c4)c3c2)c(OC)c1`, 2880 nM.
For `COc1cccc(-c2cnc3[nH]cc(-c4cccc(OC)c4)c3c2)c1`, the IC50 in [1] turned out to be 14600 nM.
The same measure, in the same setting: to `Oc1cccc(-c2cnc3[nH]cc(-c4ccccc4)c3c2)c1` belongs 2700 nM.
`Oc1ccc(O)c(-c2cnc3[nH]cc(-c4ccc(O)c(O)c4)c3c2)c1`: the IC50 in [1] was determined as 39.1 nM. For the same compound, in data set [10], the Ki amounted to 12.1 nM.
For the compound `Oc1ccc(-c2cnc3[nH]cc(-c4ccccc4)c3c2)c(O)c1`, the IC50 in data set [1] amounted to 150 nM.
The same measure, in the same setting: in the case of `Oc1ccccc1-c1cnc2[nH]cc(-c3ccccc3)c2c1` it was 3590 nM.

For the origin of these results see ChEMBL document CHEMBL3102826 (J Med Chem, 2013).
